System: CmPT2 (CmPht1;2)
Settings: labelled compound; H+ co-transporter; whole yeast cells; pH of uptake assay not stated

Km: 65.7 µM
SMILES: O=P(O)(O)O [phosphate]

Reference: paper PMC9953561, “Five Post-Translational Modification Residues of CmPT2 Play Key Roles in Yeast and Rice” (International Journal of Molecular Sciences, 2023)
